Test results taken from US20160250208A1, “TREATING ORGAN-SPECIFIC T CELL MEDIATED AUTOIMMUNE DISEASES” (UNIVERSITY OF MASSACHUSETTS, priority 2013, published 2016).

Tests used:
Ctla4−/− mice = test: Treatment of Ctla4−/− mice with ITK inhibitors (survival, T cell activation, LN size, tissue infiltration); format: in vivo, mouse; conditions: BMS509744 at 50 mg/kg, 10n at 1 mg/kg and 10 mg/kg, starting at 10 days of age; FIG. 5A
Method: Control mice (n=10) were injected with solvent alone. […] Data are representative of three experiments with 4-10 mice in each group per experiment.

14 other kinases = conditions: cited from earlier work
Fyn, IR, Lck, Btk = conditions: cited from earlier work
ITK = target: T1, ITK (Homo sapiens, UniProt Q08881); conditions: ATP-competitive; cited from earlier work
T1 sequence (Q08881 1-620): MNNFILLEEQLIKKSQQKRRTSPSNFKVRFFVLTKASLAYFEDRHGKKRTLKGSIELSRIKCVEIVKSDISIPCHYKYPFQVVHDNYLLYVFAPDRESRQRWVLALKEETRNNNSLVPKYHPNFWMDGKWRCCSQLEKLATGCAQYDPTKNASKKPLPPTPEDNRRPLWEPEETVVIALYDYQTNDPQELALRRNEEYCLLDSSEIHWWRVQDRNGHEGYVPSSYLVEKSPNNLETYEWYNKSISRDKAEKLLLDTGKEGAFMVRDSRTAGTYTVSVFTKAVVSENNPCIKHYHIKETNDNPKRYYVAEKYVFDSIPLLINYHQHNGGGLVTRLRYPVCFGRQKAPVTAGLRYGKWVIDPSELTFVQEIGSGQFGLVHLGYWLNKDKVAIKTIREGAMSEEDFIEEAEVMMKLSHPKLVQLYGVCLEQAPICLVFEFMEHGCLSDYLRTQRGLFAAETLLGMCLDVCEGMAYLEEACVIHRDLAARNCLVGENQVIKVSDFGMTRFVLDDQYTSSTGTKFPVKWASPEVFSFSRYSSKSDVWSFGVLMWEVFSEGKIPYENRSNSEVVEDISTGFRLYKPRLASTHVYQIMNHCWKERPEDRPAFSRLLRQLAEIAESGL

SVEC4-10 cells = test: Trans-endothelial migration assay across SVEC4-10 endothelial cells; format: cell-based, mouse; conditions: DKO LN cells pre-activated with Ionomycin 2 μg/ml for 2 hours; FIG. 8F

Row | Compound | lifespan of Ctla4−/− mice (Ctla4−/− mice) | activity against 14 other kinases (14 other kinases) | inhibition of Fyn, IR, Lck, Btk (Fyn, IR, Lck, Btk) | inhibition of ITK kinase activity (ITK) | frequency of DKO T cells migrating across the endothelium (SVEC4-10 cells)
1 | COc1cc(C)c(Sc2cnc(NC(=O)c3ccc(CNC(C)C(C)(C)C)cc3)s2)cc1C(=O)N1CCN(C(C)=O)CC1 (centres unmarked) [BMS509744] | significantly increased their lifespan | little or no activity | only at high concentrations | potently inhibits ITK kinase activity | –
2 | C[C@H](CCC(=O)O)C[C@H](C)C[C@H](C)C(=O)/C=C(\O)[C@H](C)C[C@H](C)C/C=C/[C@@H](C)[C@@H](O)[C@@H](C)[C@@H](O)C[C@@H]1CC[C@@](C)([C@H]2CC[C@@](C)([C@@H](C)O)O2)O1 [Ionomycin] | – | – | – | – | increased the frequency of DKO T cells that were able to migrate across the endothelium
